Assays:
RET kinase = target: T1, RET kinase (Homo sapiens, UniProt P07949); test: HTRF kinase activity inhibition, RET wild-type; type: biochemical; settings: ATP at Km
T1 construct: purchased Carna 08-159
Source text: 2.2 Experimental Reagents: • RET enzyme was purchased from Carna Company, and the article number was 08-159; • RET M918T enzyme was purchased from Carna Company, and the article number was 08-508; • KIF5B-RET was purchased from SignalChem Company, the article number was R02-19FG-05; • CCDC6-RET was purchased from SignalChem Company, the article number was R02-19BG-05; • RET V804M enzyme was purchased from Thermofisher Company, and the article number was PV6223; • RET V804L enzyme was purchased from Thermofisher Company, and the article number was PV4397; • HTRF KinEASE-TK kit was purchased from Cisbio Company, and the article number was 62TK0PEC; • ATP was purchased from Thermofisher Company, and the article number was PV3227; • 384-well plate was purchased from PerkinElmer Company, and the article number was 6007290.
In this experiment, a homogeneous time-resolved fluorescence (HTRF) method was used for the detection of compounds on RET kinase activity.

KDR kinase = target: T2, KDR kinase (Homo sapiens, UniProt P35968); test: HTRF kinase activity inhibition, KDR; type: biochemical; settings: for IC50: HTRF, ATP at Km; for Ratio (KDR/RET): KDR IC50 / RET IC50
T2 construct: purchased Carna 08-191
Source text: 2.2 Experimental Reagents: • KDR kinase was purchased from Carna Company, and the article number was 08-191; • HTRF KinEASE-TK kit was purchased from Cisbio Company, and the article number was 62TK0PEC; • ATP was purchased from Thermofisher Company, and the article number was PV3227; • 384-well plate was purchased from PerkinElmer Company, and the article number was 6007290.
In this experiment, the homogeneous time-resolved fluorescence (HTRF) method was used for the detection of compounds on KDR kinase activity.

[1] = system: TT cells (MTC, RET C634W); test: Inhibition of proliferation of TT cells (CellTiter-Glo, 72 h); type: cell-based; settings: Homo sapiens
Protocol: TT cells were purchased from the cell bank of the Chinese Academy of Sciences.
When TT cells were cultured to the appropriate fusion level, TT cells were collected, and the cells were adjusted to the appropriate cell concentration using complete medium, and the cell suspension was spread in a 96-well plate, 90 μL per well, and placed to the wall of a 37° C., 5% CO2 incubator overnight; and compound solutions of different concentrations were prepared using DMSO and culture medium; and a solvent control was set, the compound solution was added to a 96-well plate, 10 μL per well, and placed to the wall of a 37° C., 5% CO2 incubator for 72 hours; CellTiter-Glo solution was added thereto and the mixture was mixed well by shaking, incubated for 10 minutes in the dark, and read by BioTek Synergy H1 microplate reader.
The IC50 values were obtained by using luminescence signal values to calculate the inhibition rate, the concentration and the inhibition rate were fitted to a nonlinear regression curve using Graphpad Prism software.

[2] = Balb/C mouse pharmacokinetics, oral 5 mg/kg; type: in vivo, Balb/C mice; settings: male, p.o. 5 mg/kg, plasma
Protocol: The pharmacokinetic behavior of the following compound embodiments, administered orally at a dose of 5 mg/kg in plasma in mice, was studied using Balb/C mice as test animals.
Balb/C Mouse 6/embodiment, male, Shanghai Jiesijie Laboratory Animal Co., Ltd, Animal Production License No. (SCXK (Shanghai) 2013-0006 N0.311620400001794).
Balb/C mice, males; p.o. after overnight fasting, respectively, at a dose of 5 mg/kg, administered in a volume of 10 mL/kg.
0.5% CMC-Na (1% Tween80) was dissolved by ultrasound, and prepared into clear solution or uniform suspension.
Before and after administration, 0.1 mL of blood was collected from mice at 0, 0.5, 1, 2, 4, 6, 8 and 24 hours by orbital collection, placed in EDTA-K2 tubes, centrifuged at 6000 rpm at 4° C. for 6 minutes to separate plasma, and stored at −80° C.
2.5 Sample Handling: • 1) 40 μL of plasma sample was precipitated by adding 160 μL of acetonitrile, mixed and centrifuged at 3500×g for 5-20 minutes. • 2) 100 μL of the supernatant solution after treatment was taken to analyze the concentration of the test compound by LC/MS/MS.
2.6 Liquid Phase Analysis • Liquid phase conditions: Shimadzu LC-20AD pump • Mass spectrometry conditions: AB Sciex API 4000 mass spectrometer • Chromatographic column: phenomenex Gemiu 5 μM C18 50×4.6 mm • Mobile phase: Liquid A was 0.1% formic acid aqueous solution, liquid B was acetonitrile • Flow rate: 0.8 mL/min • Elution time: 0-4.0 minutes, the eluent was as follows:
The main pharmacokinetic parameters were calculated by WinNonlin 6.1 and the results of the mouse pharmacokinetic experiments were shown in Table 13 below.

T1 sequence (P07949 29-1114): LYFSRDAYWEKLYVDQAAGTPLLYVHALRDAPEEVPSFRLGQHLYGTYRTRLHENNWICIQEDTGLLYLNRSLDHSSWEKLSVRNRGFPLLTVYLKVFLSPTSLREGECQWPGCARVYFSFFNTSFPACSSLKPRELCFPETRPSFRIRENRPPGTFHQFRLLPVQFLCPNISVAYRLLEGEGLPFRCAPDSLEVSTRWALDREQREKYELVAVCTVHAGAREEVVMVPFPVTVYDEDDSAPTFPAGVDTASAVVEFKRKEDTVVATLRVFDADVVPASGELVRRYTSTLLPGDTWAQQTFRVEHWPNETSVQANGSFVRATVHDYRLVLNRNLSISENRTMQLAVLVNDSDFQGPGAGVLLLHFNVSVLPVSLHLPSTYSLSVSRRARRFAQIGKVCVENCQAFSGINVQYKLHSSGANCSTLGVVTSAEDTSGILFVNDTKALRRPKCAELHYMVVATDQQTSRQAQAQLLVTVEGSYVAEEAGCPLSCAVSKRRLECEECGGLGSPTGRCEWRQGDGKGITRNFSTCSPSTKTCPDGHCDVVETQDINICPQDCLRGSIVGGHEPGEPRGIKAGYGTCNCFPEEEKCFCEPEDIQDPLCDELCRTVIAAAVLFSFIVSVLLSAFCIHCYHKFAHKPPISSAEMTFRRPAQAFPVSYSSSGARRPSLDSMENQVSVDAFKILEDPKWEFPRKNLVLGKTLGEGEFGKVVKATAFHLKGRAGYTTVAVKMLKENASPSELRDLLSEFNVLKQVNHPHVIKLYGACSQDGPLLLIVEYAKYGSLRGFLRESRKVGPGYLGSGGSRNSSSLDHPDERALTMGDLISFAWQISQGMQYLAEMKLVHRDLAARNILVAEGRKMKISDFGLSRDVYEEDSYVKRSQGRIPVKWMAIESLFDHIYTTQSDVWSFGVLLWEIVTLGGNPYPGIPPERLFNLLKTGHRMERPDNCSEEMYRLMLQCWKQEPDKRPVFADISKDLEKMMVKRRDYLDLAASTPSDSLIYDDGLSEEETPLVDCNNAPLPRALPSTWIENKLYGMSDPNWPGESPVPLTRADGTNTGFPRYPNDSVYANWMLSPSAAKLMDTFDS
T2 sequence (P35968 20-1356): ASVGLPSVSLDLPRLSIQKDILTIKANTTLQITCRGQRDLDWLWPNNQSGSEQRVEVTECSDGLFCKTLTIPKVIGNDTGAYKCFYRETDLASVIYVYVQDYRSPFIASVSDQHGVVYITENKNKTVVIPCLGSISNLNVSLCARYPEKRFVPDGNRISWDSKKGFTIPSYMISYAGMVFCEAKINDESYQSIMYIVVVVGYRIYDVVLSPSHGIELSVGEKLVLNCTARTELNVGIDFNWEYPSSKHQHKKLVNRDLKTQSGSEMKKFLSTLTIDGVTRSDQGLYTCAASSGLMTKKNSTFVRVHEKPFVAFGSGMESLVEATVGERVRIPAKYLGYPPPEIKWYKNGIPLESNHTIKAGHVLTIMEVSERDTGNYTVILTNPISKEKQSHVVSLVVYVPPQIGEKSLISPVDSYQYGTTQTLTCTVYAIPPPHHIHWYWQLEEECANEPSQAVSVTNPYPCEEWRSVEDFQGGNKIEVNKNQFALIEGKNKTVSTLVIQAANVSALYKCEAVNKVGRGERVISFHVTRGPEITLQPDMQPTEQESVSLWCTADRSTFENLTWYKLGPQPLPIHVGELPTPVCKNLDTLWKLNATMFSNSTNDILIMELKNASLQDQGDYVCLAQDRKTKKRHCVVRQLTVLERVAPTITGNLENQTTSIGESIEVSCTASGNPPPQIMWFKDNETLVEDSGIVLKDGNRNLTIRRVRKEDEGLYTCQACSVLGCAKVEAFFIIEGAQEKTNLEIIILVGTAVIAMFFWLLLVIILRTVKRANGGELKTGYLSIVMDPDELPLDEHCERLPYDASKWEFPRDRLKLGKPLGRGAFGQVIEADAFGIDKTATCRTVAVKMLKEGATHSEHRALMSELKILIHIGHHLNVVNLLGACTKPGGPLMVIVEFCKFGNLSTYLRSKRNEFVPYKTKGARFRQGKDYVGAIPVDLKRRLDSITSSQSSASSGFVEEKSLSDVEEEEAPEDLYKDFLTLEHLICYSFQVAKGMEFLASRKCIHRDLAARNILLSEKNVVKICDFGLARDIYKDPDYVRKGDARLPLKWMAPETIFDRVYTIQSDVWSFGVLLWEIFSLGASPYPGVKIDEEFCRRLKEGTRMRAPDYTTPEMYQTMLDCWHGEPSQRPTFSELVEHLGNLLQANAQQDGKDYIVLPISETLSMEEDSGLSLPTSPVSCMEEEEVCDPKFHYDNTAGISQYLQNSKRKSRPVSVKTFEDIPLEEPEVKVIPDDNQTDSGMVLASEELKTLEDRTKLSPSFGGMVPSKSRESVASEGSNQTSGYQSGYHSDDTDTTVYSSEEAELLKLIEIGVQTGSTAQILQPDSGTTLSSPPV

Row | SMILES | IC50 (RET kinase) | IC50 (KDR kinase) | Ratio (KDR/RET) (KDR kinase) | further results
1 | COc1ccc(CN2C3CC2CN(c2ccc(-c4cc(N5CCC(C)(O)C5)cn5ncc(C#N)c45)cn2)C3)cn1 (stereo not shown) [Embodiment 34, 6-(3-Hydroxy-3-methylpyrrolidin-1-yl)-4-(6-(6-((6-methoxypyridin-3-yl)methyl)-3,6-diazabicyclo[3.1.1]heptan-3-yl)pyridin-3-yl)pyrazolo[1,5-a]pyridine-3-carbonitrile] | 0.7 nM | 4.7 nM | 7 | 
2 | COc1ccc(CN2C3CC2CN(c2ccc(-c4cc(NC(=O)C(C)(C)O)cn5ncc(C#N)c45)cn2)C3)cn1 [Embodiment 42, N-(3-Cyano-4-(6-(6-((6-methoxypyridin-3-yl)methyl)-3,6-diazabicyclo[3.1.1]heptan-3-yl)pyridin-3-yl)pyrazolo[1,5-a]pyridin-6-yl)-2-hydroxy-2-methylpropanamide] | 1.56 nM | 105 nM | 67 | 
3 | COc1ccc(CN2C3CC2CN(c2ccc(-c4cc(OCC5(C#N)COC5)cn5ncc(C#N)c45)cn2)C3)cn1 [Embodiment 37, 6-((3-Cyanooxetan-3-yl)methoxy)-4-(6-(6-((6-methoxypyridin-3-yl)methyl)-3,6-diazabicyclo[3.1.1]heptan-3-yl)pyridin-3-yl)pyrazolo[1,5-a]pyridine-3-carbonitrile] | 0.71 nM | 60.4 nM | 85 | 
4 | COc1ccc(CN2C3CC2CN(c2ccc(-c4cc(NC(=O)C5(C#N)CC5)cn5ncc(C#N)c45)cn2)C3)cn1 [Embodiment 74, 1-Cyano-N-(3-cyano-4-(6-(6-((6-methoxypyridin-3-yl)methyl)-3,6-diazabicyclo[3.1.1]heptan-3-yl)pyridin-3-yl)pyrazolo[1,5-a]pyridin-6-yl)cyclopropane-1-carboxamide] | 1.8 nM | 247 nM | 137 | 
5 | CC1(NC(=O)c2ncccc2F)CCN(c2ccc(-c3cc(OCC4(C#N)CC4)cn4ncc(C#N)c34)cn2)CC1 [Embodiment 93, N-(1-(5-(3-Cyano-6-((1-cyanocyclopropyl)methoxy)pyrazolo[1,5-a]pyridin-4-yl)pyridin-2-yl)-4-methylpiperidin-4-yl)-3-fluoropicolinamide] | 1.1 nM | 150 nM | 136 | 
6 | CC1(NC(=O)c2ncccc2Cl)CCN(c2ccc(-c3cc(N4CC(C(C)(C)O)C4)cn4ncc(C#N)c34)cn2)CC1 [Embodiment 88, 3-Chloro-N-(1-(5-(3-cyano-6-(3-(2-hydroxypropan-2-yl)azetidin-1-yl)pyrazolo[1,5-a]pyridin-4-yl)pyridin-2-yl)-4-methylpiperidin-4-yl)picolinamide] | 1.2 nM | 61 nM | 49 | 
7 | CC1(O)CC2(CN(c3cc(-c4ccc(N5CCC(C)(NC(=O)c6ncccc6Cl)CC5)nc4)c4c(C#N)cnn4c3)C2)C1 [Embodiment 89, 3-Chloro-N-(1-(5-(3-cyano-6-(6-hydroxy-6-methyl-2-azaspiro[3.3]heptan-2-yl)pyrazolo[1,5-a]pyridin-4-yl)pyridin-2-yl)-4-methylpiperidin-4-yl)picolinamide] | 1.1 nM | 8.9 nM | 8 | 
8 | COc1ccc(CN2C3CC2CN(c2ccc(-c4cc(OCC5CS(=N)(=O)C5)cn5ncc(C#N)c45)cn2)C3)cn1 (stereo not shown) [Embodiment 12, 6-((1-Imino-1-hydroxy-1l6-thietan-3-yl)methoxy)-4-(6-(6-((6-methoxypyridin-3-yl)methyl)-3,6-diazabicyclo[3.1.1]heptan-3-yl)pyridin-3-yl)pyrazolo[1,5-a]pyridine-3-carbonitrile] | 1.3 nM | 69 nM | 55 | 
9 | COc1ccc(CN2C3CC2CN(c2ccc(-c4cc(N5CC(C)(O)C5)cn5ncc(C#N)c45)cn2)C3)cn1 [Embodiment 33, 6-(3-Hydroxy-3-methylazetidin-1-yl)-4-(6-(6-((6-methoxypyridin-3-yl)methyl)-3,6-diazabicyclo[3.1.1]heptan-3-yl)pyridin-3-yl)pyrazolo[1,5-a]pyridine-3-carbonitrile] | 0.4 nM | 5.6 nM | 14 | 
10 | CC1(C#N)CN(c2cc(-c3ccc(N4CCC(C)(NC(=O)c5ncccc5Cl)CC4)nc3)c3c(C#N)cnn3c2)C1 [Embodiment 96, 3-Chloro-N-(1-(5-(3-cyano-6-(3-cyano-3-methylazetidin-1-yl)pyrazolo[1,5-a]pyridin-4-yl)pyridin-2-yl)-4-methylpiperidin-4-yl)picolinamide] | 0.72 nM | 15.8 nM | 22 | 
11 | COc1ccc(CN2C3CC2CN(c2ccc(-c4cc(N5CCC(C)(O)CC5)cn5ncc(C#N)c45)cn2)C3)cn1 [Embodiment 35, 6-(4-Hydroxy-4-methylpiperidin-1-yl)-4-(6-(6-((6-methoxypyridin-3-yl)methyl)-3,6-diazabicyclo[3.1.1]heptan-3-yl)pyridin-3-yl)pyrazolo[1,5-a]pyridine-3-carbonitrile] | 0.49 nM | 6.2 nM | 13 | 
12 | CC(C)(O)C#Cc1cc(-c2ccc(N3CC4CC(C3)N4Cc3ccc(OC4CC4)nc3)nc2)c2c(C#N)cnn2c1 [Embodiment 26, 4-(6-(6-((6-Cyclopropoxypyridin-3-yl)methyl)-3,6-diazabicyclo[3.1.1]heptan-3-yl)pyridin-3-yl)-6-(3-hydroxy-3-methylbut-1-yn-1-yl)pyrazolo[1,5-a]pyridine-3-carbonitrile] |  |  |  | IC50 [1]: 19 nM
13 | COc1ccc(CN2C3CC2CN(c2ccc(-c4cc(OCC5(C#N)CCC5)cn5ncc(C#N)c45)cn2)C3)cn1 [Embodiment 36, 6-((1-Cyanocyclobutyl)methoxy)-4-(6-(6-((6-methoxypyridin-3-yl)methyl)-3,6-diazabicyclo[3.1.1]heptan-3-yl)pyridin-3-yl)pyrazolo[1,5-a]pyridine-3-carbonitrile] | 0.83 nM | 213 nM | 257 | MRT ([2]; read-out: Average residence time MRT): 3.8 h; Cmax ([2]; read-out: Blood concentration Cmax): 1490 ng/mL; AUC(0-t) ([2]; read-out: Curve area AUC0-t): 6210 ng·h/mL; AUC(0-inf) ([2]; read-out: Curve area AUC0-∞): 6220 ng·h/mL; half-life ([2]; read-out: Half-life t1/2 (converted)): 2.19 h; Tmax ([2]; read-out: Peak time tmax): 0.5 h
14 | COc1ccc(CN2C3CC2CN(c2ccc(-c4cc(OCC5(C#N)CC(F)(F)C5)cn5ncc(C#N)c45)cn2)C3)cn1 [Embodiment 57, 6-((1-Cyano-3,3-difluorocyclobutyl)methoxy)-4-(6-(6-((6-methoxypyridin-3-yl)methyl)-3,6-diazabicyclo[3.1.1]heptan-3-yl)pyridin-3-yl)pyrazolo[1,5-a]pyridine-3-carbonitrile] | 1.1 nM | 209 nM | 187 | 
15 | COc1ccc(CN2C3CC2CN(c2ccc(-c4cc(OCCCS(C)(=N)=O)cn5ncc(C#N)c45)cn2)C3)cn1 (stereo not shown) [Embodiment 6, 4-(6-(6-((6-Methoxypyridin-3-yl)methyl)-3,6-diazabicyclo[3.1.1]heptan-3-yl)pyridin-3-yl)-6-(3-(S-methylsulfonimidoyl)propoxy)pyrazolo[1,5-a]pyridine-3-carbonitrile] | 0.79 nM | 27.7 nM | 35 | 

Source: patent publication US20230406865A1, “CRYSTAL FORM OF FREE BASE OF INHIBITOR CONTAINING BICYCLIC RING DERIVATIVE AND PREPARATION METHOD AND APPLICATION OF CRYSTAL FORM” (SHANGHAI HANSOH BIOMEDICAL CO., LTD., priority 2020, published 2023)
